The values that follow come from patent publication US4567270A, “Hexahydroindolizinones useful for treating cardiac arrhythmia, thrombotic disorders in mammals” (G. D. Searle & Co., priority 1984, dated 1986).

Counter-ions that a name gives are not always drawn. Like-named read-outs stand apart in the source and are kept apart here.

Series [1] has as its system ventricular arrhythmia induced by coronary artery ligation. The series is described as follows: Inhibition of ventricular arrhythmia induced by coronary ligation (two-stage ligation of left coronary artery). Format: in vivo, dog. As to conditions: for minimal effective dose: Canis lupus familiaris, iv, read-out: Minimum Effective Dose. On the procedure: Arrhythmias induced in this manner are considered similar in nature to those resulting from myocardial infarction in humans. […] The antiarrhythmic and antiaggregatory activities of the compounds of this invention illustrated in the examples were tested by the following methods.
Ventricular arrhythmia was induced by a two-stage ligation of the anterior descending branch of the left coronary artery in each of two or more dogs. Compounds were administered intraveneously using an initial 5 mg/kg body weight dose, with additional doses injected at intervals to a maximum of 20 mg/kg. A compound was rated active if it produced at least a 25% reduction in ectopic beats for a period of at least ten minutes in half or more of the dogs. The average minimum effective dose for each compound was calculated.
Compounds which produced 75-100% reduction in the ventricular arrhythmia at the initial 5 mg/kg dose were further tested using 1 mg/kg doses injected as before at five minute intervals. As before, a compound was rated active if it produced at least a 25% reduction in ectopic beats for a period of at least ten minutes in half or more of the dogs. The average minimum effective dose for each compound was calculated.

Series [2] deals with ADP-induced aggregation of blood platelets. In words: Inhibition of ADP-induced platelet aggregation (optical platelet aggregometry in platelet-rich plasma). In kind it is cell-based. To be noted: rat platelet-rich plasma; one minute incubation, ADP usually 1-3 mcM.
For series [3] the following is noted: cited from earlier work; for toxic / side effects: Goodman and Gilman.
Series [4] relates to ventricular arrhythmia induced by coronary artery ligation. As to conditions: dog; cited from earlier work.
The test system of another series is cardiac arrhythmia. To be noted: cited from earlier work.
Where [5] appears, read: dog, i.v., coronary ligation, average minimum dose giving at least 25% reduction in ectopic beats for at least ten minutes in half or more of the dogs.

On to `CC(C)N(CCC1(c2ccccc2Cl)CC2CCCCN2C1=O)C(C)C` (racemic) [Example 6, 2-[2-[bis(1-methylethyl)amino]ethyl]-2-(2-chlorophenyl)hexahydro-3(2H)-indolizinone, Racemate A], for which, in series [1] (setting [5]), the minimal effective dose came to 3 mg/kg. 88 µM corresponded to half-maximal inhibition in series [2] (IC50).

On to `CC(C)N(CCC1(c2ccccc2Cl)CC2CCCCN2C1=O)C(C)C` (racemic) [Example 7, 2-[2-[bis(1-methylethyl)-amino]ethyl]-2-(2-chlorophenyl)hexahydro-3(2H)-indolizinone, Racemate B], for which the “Minimum Effective Dose” value in series [1] (dog, i.v., coronary ligation, average minimum dose giving at least 25% reduction in ectopic beats for at least ten minutes in half or more of the dogs, listed as Ex. 7) was found to be 5.0 mpk.

For `CC(C)N(CCC(C(N)=O)(c1ccccc1)c1ccccn1)C(C)C` (stereo not drawn) [Disopyramide], in series [3], the “toxic / side effects” value was “anticholinergic effects”. In addition, in series [3] (at therapeutic levels), the “effective refractory period of the atrium” value was “lengthens the effective refractory period of the atrium”, the “refractory period of the A-V node” value is given as “minimal effect on the refractory period of the A-V node” and the “sinus node recovery time” value is “shortens the sinus node recovery time”. The minimal effective dose in series [1] was found to be 9.2 mg/kg. Also, the “activity of known antiarrhythmics under coronary ligation conditions” value (shortened to “activity of known antiarrhythmics”) in series [4] is listed as “active under these conditions”. In addition, the “Human dose (i.v.)” value in the series with cardiac arrhythmia (human, i.v., comment in Table 1) was “ca. 2 mpk”. Moreover, the “activity in man” value in the series on cardiac arrhythmia is on record as “active in man”.

For the compound `CC(C)N(CCC1(c2ccccc2)CC2CCCCN2C1=O)C(C)C` (stereo not drawn) [Example 3, 2-[2-[bis(1-methylethyl)amino]ethyl]-hexahydro-2-phenyl-3(2H)-indolizinone], the minimal effective dose in series [1] (setting [5]) is 5 mg/kg.

With `CC(C)N(CCC1(c2ccc(-c3ccccc3)cc2)CC2CCCCN2C1=O)C(C)C` (stereo not drawn) [Example 10, 2-[2-[bis(1-methylethyl)amino]ethyl]-2-(4-phenylphenyl)hexahydro-3(2H)-indolizinone], the minimal effective dose in series [1] (setting [5]) came to 3 mg/kg. In series [2], the concentration for half-maximal inhibition (IC50) was 34 µM.

As for `CC(C)N(CCC1(c2ccccc2)CC2CCCCN2C1=O)C(C)C` (stereo not drawn) [Example 11, 2-[2-[bis(1-methylethyl)amino]ethyl]hexahydro-2-phenyl-3(2H)-indolizinone hydrochloride hydrate], the half-inhibitory concentration (IC50) in series [2] is 81 µM.

As for `CCN(CC)CCNC(=O)c1ccc(N)cc1` [Procainamide], the “activity of known antiarrhythmics” value in series [4] is recorded as “active under these conditions”. The “activity in man” value with cardiac arrhythmia was “active in man”.

With `CC(C)NCC(O)COc1cccc2ccccc12` (stereo not drawn) [Propranolol], in series [3], the “toxic / side effects” value was “may induce significant hypotension, left ventricular failure, or even cardiovascular collapse”.

For the compound `C=C[C@H]1C[N@@]2CC[C@H]1C[C@@H]2[C@@H](O)c1ccnc2ccc(OC)cc12` [Quinidine], the “toxic / side effects” value in series [3] is on record as “exhibits several toxic reactions, such as cinchonism”. For the same compound, in series [4], the “activity of known antiarrhythmics” value was “active under these conditions”. Further, in the series with cardiac arrhythmia, the “activity in man” value was “active in man”.
